Assay results published in article PMC3508077 (Bioorganic & medicinal chemistry, 2012).

Assays:
[1] = tested on: NAD(P)H:quinone reductase 1 (QR1); conditions: for Inducer class (monofunctional / bifunctional): from QR1 induction in Taoc1BP^rc1 and BP^rc1 mutants; for QR1 induction activity in the mutant cell lines (in words): Taoc1BP^rc1 and BP^rc1 mutant cell lines
[2] = molecular target: T1, human aromatase (CYP19 enzyme) (Homo sapiens, UniProt P11511); conditions: read-out: Aromatase IC50
T1 sequence (P11511 1-503): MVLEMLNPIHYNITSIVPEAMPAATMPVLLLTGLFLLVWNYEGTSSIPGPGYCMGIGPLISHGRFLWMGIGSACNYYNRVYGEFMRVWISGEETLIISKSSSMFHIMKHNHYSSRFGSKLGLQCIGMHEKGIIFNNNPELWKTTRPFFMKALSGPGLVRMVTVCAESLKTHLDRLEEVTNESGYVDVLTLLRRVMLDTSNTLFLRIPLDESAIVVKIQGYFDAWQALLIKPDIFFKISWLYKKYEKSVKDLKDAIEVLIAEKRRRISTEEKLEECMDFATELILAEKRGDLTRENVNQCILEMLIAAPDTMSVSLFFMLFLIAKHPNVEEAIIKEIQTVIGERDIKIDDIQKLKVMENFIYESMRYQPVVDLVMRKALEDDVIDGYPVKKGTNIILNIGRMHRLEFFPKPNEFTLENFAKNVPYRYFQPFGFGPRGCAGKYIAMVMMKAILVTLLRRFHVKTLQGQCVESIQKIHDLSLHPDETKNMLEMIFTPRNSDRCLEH

[3] = tested on: NAD(P)H:quinone reductase 1 (QR1); conditions: cited from earlier work
[4] = tested on: NAD(P)H:quinone reductase 1 (QR1); test: cells; conditions: Mus musculus, 48 h, read-out: CD (concentration that doubles the activity)
[5] = molecular target: T1, human aromatase (CYP19 enzyme); conditions: cited from earlier work
NF-κB [6] = conditions: cited from earlier work
[7] = tested on: NAD(P)H:quinone reductase 1 (QR1); test: QR1 induction assay in Hepa 1c1c7 murine hepatoma cells; type: cell-based; conditions: Hepa 1c1c7 cells
NF-κB [8] = tested on: NF-κB
[9] = tested on: inducible nitric oxide synthase (iNOS)

**Q.** With O=c1cc(-c2ccc(Br)cc2)oc2ccccc12 [4′-Bromoflavone, reference compound] as the compound, how does the “Inducer class (monofunctional / bifunctional)” value [1] read?
**A.** bifunctional

**Q.** Which IC50 [2] does the source give for c1ccc(-c2nsc(-c3ccccc3)n2)cc1 [Compound 2, 3,5-Diphenyl-1,2,4-thiadiazole] here?
**A.** 32.7 ± 3.8 µM

**Q.** What about the “CD value compared with resveratrol (times lower)” value [3] of the same compound?
**A.** 10 times

**Q.** What about the EC (2-fold QR1 activity) [4] of the same compound?
**A.** > 50 µM

**Q.** What about the “Activity as an aromatase inhibitor (in words)” value [5] of the same compound?
**A.** weak

**Q.** And the “Activity as an inhibitor of NF-κB (in words)” value (NF-κB [6])?
**A.** weak

**Q.** With Fc1ccccc1-c1nsc(-c2ccccc2F)n1 [Compound 3, 3,5-bis(2-fluorophenyl)-1,2,4-thiadiazole] as the compound, how does the “CD (concentration that doubles QR1 activity)” value [3] read?
**A.** 1.8 µM

**Q.** What about the “IR (QR1 induction ratio)” value [3] of the same compound?
**A.** 10.5

**Q.** And the EC (2-fold QR1 activity) [4]?
**A.** 29.4 ± 1.3 µM

**Q.** With Fc1ccccc1-c1nsc(-c2ccccc2)n1 [Compound 6b, 3-(2-Fluorophenyl)-5-phenyl-1,2,4-thiadiazole] as the compound, how does the EC (2-fold QR1 activity) [4] read?
**A.** > 50 µM

**Q.** With FC(F)(F)c1ccccc1-c1nc(-c2ccccc2)cs1 [Compound 9a, 4-Phenyl-2-[2-(trifluoromethyl)phenyl]thiazole] as the compound, how does the “QR1 induction activity (in words)” value [7] read?
**A.** inactive

**Q.** And the EC (2-fold QR1 activity) [4]?
**A.** > 50 µM

**Q.** Which “QR1 induction activity in the mutant cell lines (in words)” value [1] does the source give for Clc1cccc(-c2nc(-c3ccccc3)cs2)c1Cl [Compound 9c, 2-(2,3-Dichlorophenyl)-4-phenylthiazole] here?
**A.** active

**Q.** For Brc1cccc(-c2nc(-c3ccccc3)cs2)c1 [Compound 9d, 2-(3-Bromophenyl)-4-phenylthiazole], which EC (2-fold QR1 activity) [4] is on record?
**A.** > 50 µM

**Q.** With COc1cccc(-c2nc(-c3ccccc3)cs2)c1 [Compound 9e, 2-(3-Methoxyphenyl)-4-phenylthiazole] as the compound, how does the “QR1 induction activity in the mutant cell lines (in words)” value [1] read?
**A.** not active

**Q.** And the “NF-κB inhibitory activity (in words)” value (NF-κB [8])?
**A.** low micromolar

**Q.** What about the “Inhibitory activity vs. iNOS (in words)” value [9] of the same compound?
**A.** weak

**Q.** And the EC (2-fold QR1 activity) [4]?
**A.** > 50 µM

**Q.** For Cc1c(Cl)cccc1-c1nc(-c2ccccc2)cs1 [Compound 9f, 2-(3-Chloro-2-methylphenyl)-4-phenylthiazole], which EC (2-fold QR1 activity) [4] is on record?
**A.** > 50 µM

**Q.** For Clc1ccc(Cl)c(-c2nc(-c3ccccc3)cs2)c1 [Compound 9g, 2-(2,5-Dichlorophenyl)-4-phenylthiazole], which “QR1 induction activity in the mutant cell lines (in words)” value [1] is on record?
**A.** active

**Q.** Which “Inducer class (monofunctional / bifunctional)” value [1] does the source give for Cc1ccc(Cl)cc1-c1nc(-c2ccccc2)cs1 [Compound 9h, 2-(5-Chloro-2-methylphenyl)-4-phenylthiazole] here?
**A.** monofunctional

**Q.** With Clc1cccc(Cl)c1-c1nc(-c2ccccc2)cs1 [Compound 9i, 2-(2,6-Dichlorophenyl)-4-phenylthiazole] as the compound, how does the EC (2-fold QR1 activity) [4] read?
**A.** > 50 µM

**Q.** With Cc1cc(Cl)ccc1-c1nc(-c2ccccc2)cs1 [Compound 9j, 2-(4-Chloro-2-methylphenyl)-4-phenylthiazole] as the compound, how does the “Inducer class (monofunctional / bifunctional)” value [1] read?
**A.** monofunctional

**Q.** Which EC (2-fold QR1 activity) [4] does the source give for Cc1ccc(-c2nc(-c3ccccc3)cs2)c(Br)c1 [Compound 9l, 2-(2-Bromo-4-methylphenyl)-4-phenylthiazole] here?
**A.** > 50 µM

**Q.** For CCCCc1ccc(-c2nc(-c3ccccc3)cs2)cc1 [Compound 9m, 2-(4-n-Butylphenyl)-4-phenylthiazole], which EC (2-fold QR1 activity) [4] is on record?
**A.** > 50 µM

**Q.** With COc1cccc(-c2csc(-c3ccccc3)n2)c1 [Compound 9n, 4-(3-Methoxyphenyl)-2-phenylthiazole] as the compound, how does the “QR1 induction activity in the mutant cell lines (in words)” value [1] read?
**A.** not active

**Q.** What about the “NF-κB inhibitory activity (in words)” value (NF-κB [8]) of the same compound?
**A.** weak

**Q.** What about the “Inhibitory activity vs. iNOS (in words)” value [9] of the same compound?
**A.** weak

**Q.** For COc1cccc(-c2csc(-c3cccc(OC)c3)n2)c1 [Compound 9o], which “CD value compared with that of resveratrol (times better)” value [7] is on record?
**A.** 241 times

**Q.** What about the “QR1 induction activity in the mutant cell lines (in words)” value [1] of the same compound?
**A.** not active

**Q.** What about the “NF-κB inhibitory activity (in words)” value (NF-κB [8]) of the same compound?
**A.** weak

**Q.** For COc1cccc(-c2csc(-c3cccc(Cl)c3C)n2)c1 [Compound 9p, 2-(3-Chloro-2-methylphenyl)-4-(3-methoxyphenyl)thiazole], which EC (2-fold QR1 activity) [4] is on record?
**A.** > 50 µM

**Q.** With COc1cccc(-c2csc(-c3cccc(Cl)c3Cl)n2)c1 [Compound 9q, 2-(2,3-Dichlorophenyl)-4-(3-methoxyphenyl)thiazole] as the compound, how does the “QR1 induction activity in the mutant cell lines (in words)” value [1] read?
**A.** did not display activity

**Q.** What about the EC (2-fold QR1 activity) [4] of the same compound?
**A.** > 50 µM

**Q.** For COc1cccc(-c2csc(-c3cccc(F)c3F)n2)c1 [Compound 9r, 2-(2,3-Difluorophenyl)-4-(3-methoxyphenyl)thiazole], which EC (2-fold QR1 activity) [4] is on record?
**A.** > 50 µM

**Q.** Which EC (2-fold QR1 activity) [4] does the source give for COc1cccc(-c2csc(-c3ccc(C)cc3Br)n2)c1 [Compound 9t, 2-(2-Bromo-4-methylphenyl)-4-(3-methoxyphenyl)thiazole] here?
**A.** > 50 µM

**Q.** For COc1cccc(-c2csc(-c3cc(Cl)ccc3C)n2)c1 [Compound 9u, 2-(5-Chloro-2-methylphenyl)-4-(3-methoxyphenyl)thiazole], which “Inducer class (monofunctional / bifunctional)” value [1] is on record?
**A.** monofunctional

**Q.** Which EC (2-fold QR1 activity) [4] does the source give for CCCCc1ccc(-c2nc(-c3cccc(OC)c3)cs2)cc1 [Compound 9v, 2-(4-n-Butylphenyl)-4-(3-methoxyphenyl)thiazole] here?
**A.** > 50 µM

**Q.** For COc1cccc(-c2csc(-c3cccc(Br)c3)n2)c1 [Compound 9w, 2-(3-Bromophenyl)-4-(3-methoxyphenyl)thiazole], which EC (2-fold QR1 activity) [4] is on record?
**A.** > 50 µM

**Q.** Which results are given for COc1cccc(-c2csc(-c3cccc(OC)c3F)n2)c1 [Compound 13a, 2-(2-Fluoro-3-methoxyphenyl)-4-(3-methoxyphenyl)thiazole]?
**A.** QR1 induction activity (in words) [7]: inactive; EC (2-fold QR1 activity) [4]: > 50 µM

**Q.** Which results are given for COc1cccc(-c2csc(-c3cc(OC)ccc3F)n2)c1 [Compound 13b, 2-(2-Fluoro-5-methoxyphenyl)-4-(3-methoxyphenyl)thiazole]?
**A.** QR1 induction activity (in words) [7]: inactive; EC (2-fold QR1 activity) [4]: > 50 µM

**Q.** With COc1cccc(-c2noc(-c3cccc(OC)c3)n2)c1 [Compound 15] as the compound, how does the EC (2-fold QR1 activity) [4] read?
**A.** > 50 µM

**Q.** Which EC (2-fold QR1 activity) [4] does the source give for COc1cccc(-c2nsc(-c3cccc(OC)c3)n2)c1 [Compound 16] here?
**A.** > 50 µM
